Read-outs that look alike come from different tables or passages of the source.
Tests used:
[1] = molecular target: electric eel acetylcholinesterase (type-IV-S) (Electrophorus electricus, UniProt O42275); test: biochemical; type: biochemical
[2] = molecular target: equine butyrylcholinesterase (Equus caballus, UniProt P81908); test: Butyrylcholinesterase inhibition; type: biochemical
Chain of equine butyrylcholinesterase (P81908 whole entry): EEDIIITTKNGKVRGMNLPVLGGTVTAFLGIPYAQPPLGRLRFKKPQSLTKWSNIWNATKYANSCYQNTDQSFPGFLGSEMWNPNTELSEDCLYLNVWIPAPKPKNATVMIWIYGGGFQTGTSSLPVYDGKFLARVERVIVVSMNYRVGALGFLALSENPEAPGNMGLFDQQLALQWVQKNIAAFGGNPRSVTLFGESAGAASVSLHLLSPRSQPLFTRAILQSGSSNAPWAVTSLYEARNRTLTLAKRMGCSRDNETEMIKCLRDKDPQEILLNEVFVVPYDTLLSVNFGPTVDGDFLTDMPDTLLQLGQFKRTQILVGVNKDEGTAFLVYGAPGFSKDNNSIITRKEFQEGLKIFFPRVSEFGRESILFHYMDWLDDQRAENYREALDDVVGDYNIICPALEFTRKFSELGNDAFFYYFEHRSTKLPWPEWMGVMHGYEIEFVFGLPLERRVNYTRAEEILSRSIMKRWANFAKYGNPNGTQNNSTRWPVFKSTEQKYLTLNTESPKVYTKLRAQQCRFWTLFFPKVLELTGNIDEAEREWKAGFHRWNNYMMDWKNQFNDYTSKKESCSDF

Chain of electric eel acetylcholinesterase (type-IV-S) (O42275 24-633): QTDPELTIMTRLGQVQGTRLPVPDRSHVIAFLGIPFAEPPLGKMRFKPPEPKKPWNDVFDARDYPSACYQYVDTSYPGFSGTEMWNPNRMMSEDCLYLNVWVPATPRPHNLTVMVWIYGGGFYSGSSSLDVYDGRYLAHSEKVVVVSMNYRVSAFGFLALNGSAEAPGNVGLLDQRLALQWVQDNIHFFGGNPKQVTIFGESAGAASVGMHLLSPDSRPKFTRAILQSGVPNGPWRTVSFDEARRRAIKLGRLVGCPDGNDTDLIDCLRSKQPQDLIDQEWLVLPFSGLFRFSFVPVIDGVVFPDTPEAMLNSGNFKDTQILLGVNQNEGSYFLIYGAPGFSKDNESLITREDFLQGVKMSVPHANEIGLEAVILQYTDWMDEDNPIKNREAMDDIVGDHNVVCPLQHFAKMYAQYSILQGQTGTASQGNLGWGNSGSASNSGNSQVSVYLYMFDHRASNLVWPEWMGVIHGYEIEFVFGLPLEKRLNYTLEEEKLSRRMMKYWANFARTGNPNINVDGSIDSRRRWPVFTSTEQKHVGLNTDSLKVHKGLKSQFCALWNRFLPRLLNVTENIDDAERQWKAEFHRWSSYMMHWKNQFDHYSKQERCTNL

Compound | IC50 [1] [µM] | IC50 [2] [µM] | IC50 ([1]; read-out: AChE IC50 (μM) ± SD, NA = not active, galantamine as positive control) [µM] | IC50 ([2]; read-out: BChE IC50 (μM) ± SD, NA = not active, galantamine as positive control) [µM]
CCC/C=N/NC(=O)COc1ccc(Sc2ccc(OCC(=O)N/N=C/CCC)cc2)cc1 [4y, 2,2′-((Thiobis(4,1-phenylene))bis(oxy))bis(N′-((E)-butylidene)acetohydrazide)] | 122.6 ± 0.943 | 101.1 ± 0.938 | – | –
CCCC/C=N/NC(=O)COc1ccc(Sc2ccc(OCC(=O)N/N=C/CCCC)cc2)cc1 [4x, 2,2′-((Thiobis(4,1-phenylene))bis(oxy))bis(N′-((E)-pentylidene)acetohydrazide)] | 186.3 ± 0.876 | 103.1 ± 0.877 | – | –
2,2′-((Thiobis(4,1-phenylene))bis(oxy))bis(N′-((E)-4-fluorobenzylidene)acetohydrazide) [4s] | – | – | 91.5 ± 0.615 | 36.4 ± 0.702
